This is an account of results in PubChem BioAssay (NCI).

Some test systems named below: NCI-H460 lung; NCI-H522 lung; OVCAR-3 ovarian; ACHN renal; NCI-H23 lung; SF-539 CNS; HCT-116 colon; RPMI-8226 leukemia; EKVX NSCLC; LOX IMVI melanoma.
Holding throughout (test): inhibition of tumour cell growth, NCI panel, 48 h

Values joined by “and” are separate entries in the source; they are usually repeats but may differ in a detail not shown here. Identical values can stand only once.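 Where inhibition never reached the appropriate level, the endpoint shown equals the highest concentration tested. Otherwise, values were interpolated linearly from a five-concentration, 48-hour dose response in 96-well plates. GI50 marks 50% less growth. TGI is the concentration that stops growth completely.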

For `ClC[Si]12OCCN(CCO1)CCO2`, the TGI with NCI-H460 lung, in the test with NCI-H522 lung, in the test on OVCAR-3 ovarian, in the test with ACHN renal, in the test on NCI-H23 lung and in the test with SF-539 CNS was more than 100 µM in each case. The TGI with HCT-116 colon and in the test on RPMI-8226 leukemia was more than 100 µM in each case.
`CC1=C(c2cc(C(=O)Nc3nccs3)nc(NC#N)n2)Sc2ccccc2N1`: the TGI in the test with NCI-H460 lung, in the test with EKVX NSCLC, in the test on NCI-H522 lung, in the test with OVCAR-3 ovarian, in the test on ACHN renal and in the test on NCI-H23 lung was more than 100 µM throughout. In addition, the TGI with SF-539 CNS, with HCT-116 colon and with RPMI-8226 leukemia was more than 100 µM in each case.
Consider `O=C(CCl)Nc1ccc2c(c1)C(=O)c1ccc(NC(=O)CCl)cc1C2=O`, for which the GI50 with NCI-H460 lung was 0.387 µM; in the test on NCI-H522 lung it was 0.194 µM; in the test on LOX IMVI melanoma, 0.0935 µM; in the test with OVCAR-3 ovarian, 0.277 µM; with NCI-H23 lung, 0.253 µM; with SF-539 CNS, 0.301 µM. The GI50 was 0.199 µM in the test on HCT-116 colon and 0.434 µM in the test on RPMI-8226 leukemia. Further, the TGI in the test on NCI-H460 lung turned out to be 1.53 µM; in the test with NCI-H522 lung, 0.57 µM; in the test with LOX IMVI melanoma, 0.229 µM; in the test with OVCAR-3 ovarian, 0.885 µM; in the test on NCI-H23 lung, 0.834 µM; with SF-539 CNS, 0.866 µM. Besides, the TGI in the test on HCT-116 colon came out at 0.768 µM; in the test with RPMI-8226 leukemia, 2.23 µM.
With `c1ccc(C2N3CCCCC3[C@@H]3c4[nH]c5ccccc5c4CCN23)cc1` (stereo not given in full), the TGI with NCI-H460 lung, with EKVX NSCLC, with OVCAR-3 ovarian, in the test on ACHN renal, with NCI-H23 lung and in the test with SF-539 CNS was more than 100 µM in each case. Besides, the TGI in the test on HCT-116 colon and in the test with RPMI-8226 leukemia was more than 100 µM each time.
In the case of `O=C1C(Cl)=C(Nc2cccc(O)c2)C(=O)N1c1cccc(Cl)c1Cl`, the GI50 in the test on NCI-H460 lung is 14.8 µM; in the test on EKVX NSCLC it was 49.6 µM; with NCI-H522 lung, 12.4 µM; with LOX IMVI melanoma it was 12.5 µM; in the test with ACHN renal, 19.1 µM; in the test with NCI-H23 lung, 14.4 µM. Also, the results for the GI50 with HCT-116 colon and with RPMI-8226 leukemia were 11.2 µM and 1.56 µM, respectively. The TGI with NCI-H460 lung was 51.5 µM; in the test on EKVX NSCLC it was more than 100 µM; in the test on NCI-H522 lung, 27 µM; with LOX IMVI melanoma, 28.5 µM; in the test on ACHN renal, more than 100 µM; with NCI-H23 lung, 34.6 µM. Besides, the TGI in the test on HCT-116 colon was found to be 23.2 µM; with RPMI-8226 leukemia, 16.2 µM.
Take `COc1ccc(Cn2c(Br)c3c(c2-c2cc(OC)c(OC)c(OC)c2)CCc2sc(NC(C)=O)nc2-3)cc1`: the GI50 in the test with NCI-H460 lung is 3.05 µM; with NCI-H522 lung it was 2.17 µM; with LOX IMVI melanoma it was 4.45 µM; in the test on OVCAR-3 ovarian, 3.63 µM; in the test with ACHN renal, 5.27 µM; in the test with NCI-H23 lung, 8.6 µM. Moreover, the GI50 is 2.41 µM in the test with SF-539 CNS, 3.4 µM with HCT-116 colon and 4.23 µM with RPMI-8226 leukemia. Further, the TGI with NCI-H460 lung was more than 100 µM; in the test on NCI-H522 lung, 9.22 µM; with LOX IMVI melanoma it was 42.8 µM; in the test on OVCAR-3 ovarian it was more than 100 µM; with ACHN renal, 26.9 µM; in the test on NCI-H23 lung, more than 100 µM. The TGI was 6.79 µM with SF-539 CNS, 14.6 µM with HCT-116 colon and more than 100 µM in the test with RPMI-8226 leukemia.
Regarding `BrC12c3ccccc3Sc3ccccc3C1(Br)c1ccccc12` (stereo not given), the TGI with NCI-H460 lung was more than 100 µM; in the test with NCI-H522 lung, 44.6 µM; in the test with LOX IMVI melanoma, 29.7 µM; with ACHN renal it was more than 100 µM; in the test with SF-539 CNS it was 34.6 µM; with HCT-116 colon it was 52.1 µM. This molecule yielded a TGI in the test on RPMI-8226 leukemia of 36.4 µM.
For `O=C1c2ccccc2C(=O)c2c1ccc1c2OCO1`, the TGI in the test on EKVX NSCLC, with NCI-H522 lung, with LOX IMVI melanoma, in the test on OVCAR-3 ovarian, in the test with NCI-H23 lung and in the test on SF-539 CNS was more than 100 µM each time. For the same molecule, the TGI in the test on HCT-116 colon and in the test on RPMI-8226 leukemia was more than 100 µM each time.
As for `COc1ccc(CC2C3=C(CCCC3)CCN2C)cc1` (stereo not given), the TGI in the test with NCI-H460 lung, with EKVX NSCLC, with LOX IMVI melanoma, in the test with OVCAR-3 ovarian, in the test with ACHN renal and in the test on NCI-H23 lung was more than 100 µM throughout. Also, the TGI in the test with SF-539 CNS, in the test on HCT-116 colon and with RPMI-8226 leukemia was more than 100 µM each time.
On to `O=[N+]([O-])c1ccc(-c2cn(-c3ccc(Cl)cc3)cn2)cc1`, for which the TGI in the test on NCI-H460 lung was more than 100 µM; in the test with EKVX NSCLC, more than 100 µM; with NCI-H522 lung it was 14.4 µM; with LOX IMVI melanoma, more than 100 µM; in the test on OVCAR-3 ovarian, 35.3 µM; in the test with ACHN renal, more than 100 µM. Further, the TGI in the test with NCI-H23 lung, in the test with HCT-116 colon and in the test on RPMI-8226 leukemia was more than 100 µM each time.
Regarding `CC(=O)OCC1OC(n2c(-c3ccccc3)c(C)c(C)c(C#N)c2=S)C(OC(C)=O)C(OC(C)=O)C1OC(C)=O` (stereo not given), the TGI was more than 100 µM in the test with NCI-H460 lung; 46.9 µM and 77 µM in the test on EKVX NSCLC; more than 100 µM with NCI-H522 lung; more than 100 µM with LOX IMVI melanoma; more than 100 µM in the test with OVCAR-3 ovarian; more than 100 µM in the test with ACHN renal. The TGI with NCI-H23 lung is > 50 µM and 54.7 µM; in the test on SF-539 CNS it was 36.8 µM and > 100 µM; with HCT-116 colon, 21.6 µM and > 100 µM. Besides, the GI50 in the test on LOX IMVI melanoma was 14.1 µM and > 100 µM; in the test on ACHN renal it was 26.8 µM and > 100 µM; in the test on NCI-H23 lung it was 32.9 µM and 16.3 µM; in the test with SF-539 CNS, 14.4 µM and > 100 µM; in the test on HCT-116 colon it was 11.4 µM and 40.1 µM.
Consider `CC(=O)OCC1OC(Sc2ccccn2)C=CC1OC(C)=O` (stereo not given), for which the TGI with EKVX NSCLC, in the test with NCI-H522 lung, in the test on LOX IMVI melanoma, with OVCAR-3 ovarian, in the test on ACHN renal and in the test with NCI-H23 lung was more than 100 µM in each case. In addition, the TGI with SF-539 CNS and in the test on HCT-116 colon was more than 100 µM in each case.
